# In US20170240556A1, “BIFLUORODIOXALANE-AMINO-BENZIMIDAZOLE KINASE INHIBITORS FOR THE TREATMENT OF CANCER, AUTOIMMUNEINFLAMMATION AND CNS DISORDERS” (4SC DISCOVERY GMBH, priority 2012, published 2017):
# Molecular target: Casein kinase 1 delta (CSKN1D) (Homo sapiens, UniProt P48730)
# Assay: Casein kinase assay, CK1 delta
# Format: biochemical
# Conditions: recombinant CSKN1D 5 nM, ATP 10 μM
# Method: The recombinant protein Casein kinase 1 delta (CSKN1D) was added to the substrate solution in a concentration of 5 nM and gently mixed. Dilution series in of compounds of the present invention in DMSO were added to the reaction mixture, followed after 20 min by addition of a mixture of ATP and ^33P-ATP (specific activity 0.01 μCi/μl final) to a final concentration of 10 μM. Reactions were carried out at 25° C. for 120 min, followed by spotting the reactions onto P81 ion exchange filter paper. Unbound phosphate was removed by washing of the filters in 0.75% phosphoric acid. […] IC50 values and curve fits were obtained using the program Prism® (Graph Pad Software).
# Sequence of Casein kinase 1 delta (CSKN1D) (P48730 whole entry): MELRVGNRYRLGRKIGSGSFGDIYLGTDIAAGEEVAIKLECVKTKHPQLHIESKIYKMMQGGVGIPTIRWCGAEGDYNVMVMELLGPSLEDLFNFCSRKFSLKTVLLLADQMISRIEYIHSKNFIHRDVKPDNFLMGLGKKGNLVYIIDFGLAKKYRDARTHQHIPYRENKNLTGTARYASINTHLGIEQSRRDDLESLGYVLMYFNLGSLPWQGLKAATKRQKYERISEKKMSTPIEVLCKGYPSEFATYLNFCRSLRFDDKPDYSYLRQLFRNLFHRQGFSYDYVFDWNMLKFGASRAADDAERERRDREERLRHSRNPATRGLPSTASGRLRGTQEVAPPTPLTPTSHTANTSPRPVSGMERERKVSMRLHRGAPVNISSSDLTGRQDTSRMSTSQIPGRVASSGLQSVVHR
row,Structure (SMILES),IC50 [nM]
1,"O=C(Nc1nc2cc3c(cc2[nH]1)OC(F)(F)O3)c1cncc(-c2cccs2)c1 [Compound 23B, N-(2,2-difluoro-5H-[1,3]dioxolo[4′,5′:4,5]benzo[1,2-d]imidazol-6-yl)-5-(thiophen-2-yl)nicotinamide]",< 200
2,COc1ccnc(C(=O)Nc2nc3cc4c(cc3[nH]2)OC(F)(F)O4)c1 [Compound 26B],> 1000
3,"Cc1cc(C(=O)Nc2nc3cc4c(cc3[nH]2)OC(F)(F)O4)nn1C [Compound 146, N-(2,2-difluoro-5H-[1,3]dioxolo[4′,5′:4,5]benzo[1,2-d]imidazol-6-yl)-1,5-dimethyl-1H-pyrazole-3-carboxamide]",> 1000
4,"CS(=O)(=O)Nc1cccc(C(=O)Nc2nc3cc4c(cc3[nH]2)OC(F)(F)O4)c1 [Compound 108, N-(2,2-difluoro-5H-[1,3]dioxolo[4′,5′:4,5]benzo[1,2-d]imidazol-6-yl)-3-(methylsulfonamido)benzamide]",< 200
5,"O=C(Nc1nc2cc3c(cc2[nH]1)OC(F)(F)O3)c1cccc(-c2nnn[nH]2)c1 [Compound 118, N-(2,2-difluoro-5H-[1,3]dioxolo[4′,5′:4,5]benzo[1,2-d]imidazol-6-yl)-3-(1H-tetrazol-5-yl)benzamide]",< 200
6,"Cc1ccc(C(=O)Nc2nc3cc4c(cc3[nH]2)OC(F)(F)O4)cc1 [Compound 107, N-(2,2-difluoro-5H-[1,3]dioxolo[4′,5′:4,5]benzo[1,2-d]imidazol-6-yl)-4-methylbenzamide]",> 1000
7,"CN(C)c1ccc(C(=O)Nc2nc3cc4c(cc3[nH]2)OC(F)(F)O4)cc1 [Compound 75, N-(2,2-difluoro-5H-[1,3]dioxolo[4′,5′:4,5]benzo[1,2-d]imidazol-6-yl)-4-(dimethylamino)benzamide]",< 200
8,"O=C(Nc1nc2cc3c(cc2[nH]1)OC(F)(F)O3)c1ccc([N+](=O)[O-])cc1 [Compound 58, N-(2,2-difluoro-5H-[1,3]dioxolo[4′,5′:4,5]benzo[1,2-d]imidazol-6-yl)-4-nitrobenzamide]",200 to 1000
9,"NS(=O)(=O)c1ccc(C(=O)Nc2nc3cc4c(cc3[nH]2)OC(F)(F)O4)cn1 [Compound 112, N-(2,2-difluoro-5H-[1,3]dioxolo[4′,5′:4,5]benzo[1,2-d]imidazol-6-yl)-6-sulfamoylnicotinamide]",< 200
10,"CC(C)(C)c1ccc(C(=O)Nc2nc3cc4c(cc3[nH]2)OC(F)(F)O4)cc1 [Compound 115, 4-(tert-butyl)-N-(2,2-difluoro-5H-[1,3]dioxolo[4′,5′:4,5]benzo[1,2-d]imidazol-6-yl)benzamide]",200 to 1000
11,COc1cccc(C(=O)Nc2nc3cc4c(cc3[nH]2)OC(F)(F)O4)n1 [Compound 24B],200 to 1000
12,"COC(=O)c1cccc(C(=O)Nc2nc3cc4c(cc3[nH]2)OC(F)(F)O4)c1 [Compound 105, methyl 3-((2,2-difluoro-5H-[1,3]dioxolo[4′,5′:4,5]benzo[1,2-d]imidazol-6-yl)carbamoyl)benzoate]",< 200
13,"O=C(Nc1nc2cc3c(cc2[nH]1)OC(F)(F)O3)c1ccc(-n2cnnn2)cc1 [Compound 22B, N-(2,2-difluoro-5H-[1,3]dioxolo[4′,5′:4,5]benzo[1,2-d]imidazol-6-yl)-4-(1H-tetrazol-1-yl)benzamide]",< 200
14,"NC(=O)c1ccc(C(=O)Nc2nc3cc4c(cc3[nH]2)OC(F)(F)O4)c(F)c1 [Compound 94, N^1-(2,2-difluoro-5H-[1,3]dioxolo[4′,5′:4,5]benzo[1,2-d]imidazol-6-yl)-2-fluoroterephthalamide]",< 200
15,"O=C(Nc1nc2cc3c(cc2[nH]1)OC(F)(F)O3)c1cccc(O)c1 [Compound 113, N-(2,2-difluoro-5H-[1,3]dioxolo[4′,5′:4,5]benzo[1,2-d]imidazol-6-yl)-3-hydroxybenzamide]",< 200
16,"O=C(Nc1nc2cc3c(cc2[nH]1)OC(F)(F)O3)c1ccno1 [Compound 72, N-(2,2-difluoro-5H-[1,3]dioxolo[4′,5′:4,5]benzo[1,2-d]imidazol-6-yl)isoxazole-5-carboxamide]",200 to 1000
17,"O=C(Nc1nc2cc3c(cc2[nH]1)OC(F)(F)O3)c1cnco1 [Compound 71, N-(2,2-difluoro-5H-[1,3]dioxolo[4′,5′:4,5]benzo[1,2-d]imidazol-6-yl)oxazole-5-carboxamide]",200 to 1000
18,"O=C(Nc1nc2cc3c(cc2[nH]1)OC(F)(F)O3)c1cncc(-c2ccco2)c1 [Compound 4B, N-(2,2-difluoro-5H-[1,3]dioxolo[4′,5′:4,5]benzo[1,2-d]imidazol-6-yl)-5-(furan-2-yl)nicotinamide]",< 200
19,O=C(Nc1nc2cc3c(cc2[nH]1)OC(F)(F)O3)c1ccc(-c2ccccc2)cc1 [Compound 21B],200 to 1000
20,"NS(=O)(=O)c1ccc(C(=O)Nc2nc3cc4c(cc3[nH]2)OC(F)(F)O4)cc1 [Compound 62, N-(2,2-difluoro-5H-[1,3]dioxolo[4′,5′:4,5]benzo[1,2-d]imidazol-6-yl)-4-sulfamoylbenzamide]",< 200
21,"CCOC(=O)c1cc(C)n(-c2cccc(C(=O)Nc3nc4cc5c(cc4[nH]3)OC(F)(F)O5)c2)c1C [Compound 139, ethyl 1-(3-((2,2-difluoro-5H-[1,3]dioxolo[4′,5′:4,5]benzo[1,2-d]imidazol-6-yl)carbamoyl)phenyl)-2,5-dimethyl-1H-pyrrole-3-carboxylate]",< 200
22,"O=C(Nc1nc2cc3c(cc2[nH]1)OC(F)(F)O3)c1cncc(N2CCOCC2)c1 [Compound 25B, N-(2,2-difluoro-5H-[1,3]dioxolo[4′,5′:4,5]benzo[1,2-d]imidazol-6-yl)-5-morpholinonicotinamide]",< 200
23,"O=C(Nc1nc2cc3c(cc2[nH]1)OC(F)(F)O3)c1cccc(OC(F)F)c1 [Compound 121, N-(2,2-difluoro-5H-[1,3]dioxolo[4′,5′:4,5]benzo[1,2-d]imidazol-6-yl)-3-(difluoromethoxy)benzamide]",< 200
24,"O=C(Nc1nc2cc3c(cc2[nH]1)OC(F)(F)O3)C1CCCCC1 [Compound 80, N-(2,2-difluoro-5H-[1,3]dioxolo[4′,5′:4,5]benzo[1,2-d]imidazol-6-yl)cyclohexanecarboxamide]",< 200
25,"CC(C)c1nc(-c2cccc(C(=O)Nc3nc4cc5c(cc4[nH]3)OC(F)(F)O5)c2)no1 [Compound 131, N-(2,2-difluoro-5H-[1,3]dioxolo[4′,5′:4,5]benzo[1,2-d]imidazol-6-yl)-3-(5-isopropyl-1,2,4-oxadiazol-3-yl)benzamide]",< 200
26,"CCNc1ccc(C(=O)Nc2nc3cc4c(cc3[nH]2)OC(F)(F)O4)cc1 [Compound 77, N-(2,2-difluoro-5H-[1,3]dioxolo[4′,5′:4,5]benzo[1,2-d]imidazol-6-yl)-4-(ethylamino)benzamide]",< 200
27,"O=C(Nc1nc2cc3c(cc2[nH]1)OC(F)(F)O3)c1cccc(F)c1 [Compound 70, N-(2,2-difluoro-5H-[1,3]dioxolo[4′,5′:4,5]benzo[1,2-d]imidazol-6-yl)-3-fluorobenzamide]",< 200
28,"N#Cc1cccc(C(=O)Nc2nc3cc4c(cc3[nH]2)OC(F)(F)O4)c1 [Compound 116, 3-cyano-N-(2,2-difluoro-5H-[1,3]dioxolo[4′,5′:4,5]benzo[1,2-d]imidazol-6-yl)benzamide]",< 200
